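Where inhibition never reached the appropriate level, the endpoint shown equals the highest concentration tested. Otherwise, values were interpolated linearly from a five-concentration, 48-hour dose response in 96-well plates. TGI is the concentration that stops growth completely.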
Tests used:
Assay in all cases: growth of human tumour cells (NCI), 48 h
SK-OV-3 ovarian = tested on: SK-OV-3 ovarian
K-562 leukemia = tested on: K-562 leukemia
A549 NSCLC = tested on: A549 NSCLC
SK-MEL-5 melanoma = tested on: SK-MEL-5 melanoma
EKVX NSCLC = tested on: EKVX NSCLC
RPMI-8226 leukemia = tested on: RPMI-8226 leukemia
MDA-N = tested on: MDA-N
OVCAR-3 ovarian = tested on: OVCAR-3 ovarian
SF-539 CNS = tested on: SF-539 CNS
OVCAR-4 ovarian = tested on: OVCAR-4 ovarian
MCF7 breast = tested on: MCF7 breast
CAKI-1 renal = tested on: CAKI-1 renal
PC-3 prostate = tested on: PC-3 prostate
T-47D breast = tested on: T-47D breast
SW-620 colon = tested on: SW-620 colon
HT29 colon = tested on: HT29 colon
NCI-H23 lung = tested on: NCI-H23 lung
IGROV1 ovarian = tested on: IGROV1 ovarian
BT-549 breast = tested on: BT-549 breast
DU-145 prostate = tested on: DU-145 prostate
SNB-75 CNS = tested on: SNB-75 CNS
M14 melanoma = tested on: M14 melanoma
OVCAR-5 ovarian = tested on: OVCAR-5 ovarian
TK-10 renal = tested on: TK-10 renal
SN12C renal = tested on: SN12C renal
HS 578T breast = tested on: HS 578T breast
HCT-15 colon = tested on: HCT-15 colon
UO-31 renal = tested on: UO-31 renal
HCC-2998 colon = tested on: HCC-2998 colon
LOX IMVI melanoma = tested on: LOX IMVI melanoma
KM12 colon = tested on: KM12 colon
UACC-257 melanoma = tested on: UACC-257 melanoma
HOP-62 NSCLC = tested on: HOP-62 NSCLC
NCI/ADR-RES ovarian = tested on: NCI/ADR-RES ovarian
SF-268 CNS = tested on: SF-268 CNS
NCI-H522 lung = tested on: NCI-H522 lung
CCRF-CEM leukemia = tested on: CCRF-CEM leukemia
RXF 393 renal = tested on: RXF 393 renal
NCI-H226 lung = tested on: NCI-H226 lung
MDA-MB-435 = tested on: MDA-MB-435
SNB-19 CNS = tested on: SNB-19 CNS
COLO 205 colon = tested on: COLO 205 colon
SF-295 CNS = tested on: SF-295 CNS
HL-60(TB) leukemia = tested on: HL-60(TB) leukemia
SK-MEL-28 melanoma = tested on: SK-MEL-28 melanoma
MALME-3M melanoma = tested on: MALME-3M melanoma
MDA-MB-231 breast = tested on: MDA-MB-231 breast
NCI-H460 lung = tested on: NCI-H460 lung
HCT-116 colon = tested on: HCT-116 colon
SK-MEL-2 melanoma = tested on: SK-MEL-2 melanoma
786-0 renal = tested on: 786-0 renal
MOLT-4 leukemia = tested on: MOLT-4 leukemia
ACHN renal = tested on: ACHN renal
UACC-62 melanoma = tested on: UACC-62 melanoma
U251 CNS = tested on: U251 CNS
OVCAR-8 ovarian = tested on: OVCAR-8 ovarian
SR leukemia = tested on: SR leukemia

Measured: TGI

O=C(NC(=O)c1ccccc1)OC(c1ccccc1)C1CO1 (configuration not stated)
> 100 µM: SK-OV-3 ovarian | K-562 leukemia | A549 NSCLC | SK-MEL-5 melanoma | EKVX NSCLC | RPMI-8226 leukemia | MDA-N | OVCAR-3 ovarian | SF-539 CNS | OVCAR-4 ovarian | MCF7 breast | CAKI-1 renal | PC-3 prostate | T-47D breast | SW-620 colon | HT29 colon | NCI-H23 lung | IGROV1 ovarian | BT-549 breast | DU-145 prostate | SNB-75 CNS | M14 melanoma | OVCAR-5 ovarian | TK-10 renal | SN12C renal | HS 578T breast | HCT-15 colon | UO-31 renal | HCC-2998 colon | LOX IMVI melanoma | KM12 colon | UACC-257 melanoma | HOP-62 NSCLC | NCI/ADR-RES ovarian | SF-268 CNS | NCI-H522 lung | CCRF-CEM leukemia | RXF 393 renal | NCI-H226 lung | MDA-MB-435 | SNB-19 CNS | COLO 205 colon | SF-295 CNS | HL-60(TB) leukemia | SK-MEL-28 melanoma | MALME-3M melanoma | MDA-MB-231 breast | NCI-H460 lung | HCT-116 colon | SK-MEL-2 melanoma | 786-0 renal | MOLT-4 leukemia | ACHN renal | UACC-62 melanoma | U251 CNS | OVCAR-8 ovarian

NC1=NCC(CN2CCCCC2)O1 (configuration not stated)
> 100 µM: SK-OV-3 ovarian | K-562 leukemia | A549 NSCLC | SK-MEL-5 melanoma | EKVX NSCLC | RPMI-8226 leukemia | MDA-N | OVCAR-3 ovarian | SF-539 CNS | MCF7 breast | CAKI-1 renal | PC-3 prostate | T-47D breast | SW-620 colon | SR leukemia | HT29 colon | IGROV1 ovarian | BT-549 breast | SNB-75 CNS | M14 melanoma | TK-10 renal | SN12C renal | HS 578T breast | HCT-15 colon | UO-31 renal | LOX IMVI melanoma | KM12 colon | UACC-257 melanoma | HOP-62 NSCLC | NCI/ADR-RES ovarian | SF-268 CNS | NCI-H522 lung | CCRF-CEM leukemia | RXF 393 renal | NCI-H226 lung | MDA-MB-435 | SNB-19 CNS | COLO 205 colon | SF-295 CNS | HL-60(TB) leukemia | SK-MEL-28 melanoma | MALME-3M melanoma | MDA-MB-231 breast | NCI-H460 lung | HCT-116 colon | 786-0 renal | MOLT-4 leukemia | ACHN renal | UACC-62 melanoma | U251 CNS | OVCAR-8 ovarian

From PubChem BioAssay (NCI)
